Reference: ChEMBL document CHEMBL1201862, “PubChem BioAssay data set” (2004)
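Compound exposure: 48 hours, 5 concentrations, 96-well plates. GI50 is the concentration that inhibits growth by half.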 The source made the active and inactive calls. Rule as the data show it: active = GI50 up to about 1.1 µM and inactive = higher.

Key:
Test in all cases: NCI tumour cell line growth inhibition, 48 h
[1] = system: IGROV-1
[2] = system: CAKI-1
[3] = system: MOLT-4
[4] = system: T47D
[5] = system: HOP-92
[6] = system: K562
[7] = system: MDA-MB-231
[8] = system: MDA-MB-435
[9] = system: OVCAR-8
[10] = system: DU-145
[11] = system: COLO 205
[12] = system: Hs-578T
[13] = system: SK-MEL-2
[14] = system: 786-0
[15] = system: SF-268
[16] = system: ACHN
[17] = system: MCF7
[18] = system: TK-10
[19] = system: Malme-3M
[20] = system: NCI-H460

## O=C(CCc1cccc(O)c1)NCCc1cccc(OCc2ccccc2)c1
[1]
  GI50: 8.93 µM (inactive)
[2]
  GI50: 26.9 µM (inactive)
[3]
  GI50: 11 µM (inactive)
[4]
  GI50: 18.8 µM (inactive)
[5]
  GI50: 14.9 µM (inactive)
[6]
  GI50: 20.5 µM (inactive)
[7]
  GI50: 18.5 µM (inactive)
[8]
  GI50: 14.9 µM (inactive)
[9]
  GI50: 26.7 µM (inactive)
[10]
  GI50: 27.5 µM (inactive)
[11]
  GI50: 19.7 µM (inactive)
[12]
  GI50: 16.4 µM (inactive)
[13]
  GI50: 15.6 µM (inactive)
[14]
  GI50: 25.4 µM (inactive)
[15]
  GI50: 15.3 µM (inactive)
[16]
  GI50: 25.4 µM (inactive)
[17]
  GI50: 18.8 µM (inactive)
[18]
  GI50: 24.1 µM (inactive)
[19]
  GI50: 17.6 µM (inactive)
[20]
  GI50: 15.6 µM (inactive)

## C=C1CC(COc2ccc3c(C)c(Cl)c(=O)oc3c2)(c2ccccc2)OC1=O (stereo not given)
[1]
  GI50: 1.94 µM (inactive)
[2]
  GI50: 1.37 µM (inactive)
[3]
  GI50: 0.805 µM (active)
[4]
  GI50: 2.04 µM (inactive)
[5]
  GI50: 1.47 µM (inactive)
[6]
  GI50: 0.422 µM (active)
[7]
  GI50: 3.78 µM (inactive)
[8]
  GI50: 2.45 µM (inactive)
[9]
  GI50: 2.06 µM (inactive)
[10]
  GI50: 3.01 µM (inactive)
[11]
  GI50: 0.675 µM (active)
[12]
  GI50: 5.58 µM (inactive)
[13]
  GI50: 1.75 µM (inactive)
[14]
  GI50: 1.51 µM (inactive)
[15]
  GI50: 4.46 µM (inactive)
[16]
  GI50: 2.86 µM (inactive)
[17]
  GI50: 1.08 µM (active)
[18]
  GI50: 1.53 µM (inactive)
[19]
  GI50: 1.67 µM (inactive)
[20]
  GI50: 8 µM (inactive)

## CN(C)c1ccc(C=c2c3ccccc3n3c2c2c([n+]3C)CCCC2)cc1
[1]
  GI50: 0.138 µM (active)
[2]
  GI50: 0.908 µM (active)
[3]
  GI50: 0.116 µM (active)
[4]
  GI50: 0.0191 µM (active)
[5]
  GI50: 0.046 µM (active)
[6]
  GI50: 0.023 µM (active)
[7]
  GI50: 0.575 µM (active)
[8]
  GI50: 0.109 µM (active)
[9]
  GI50: 0.128 µM (active)
[10]
  GI50: 0.245 µM (active)
[11]
  GI50: 0.0301 µM (active)
[12]
  GI50: 0.351 µM (active)
[13]
  GI50: 0.173 µM (active)
[14]
  GI50: 0.261 µM (active)
[15]
  GI50: 0.183 µM (active)
[16]
  GI50: 0.314 µM (active)
[17]
  GI50: 0.0491 µM (active)
[18]
  GI50: 0.207 µM (active)
[19]
  GI50: 0.17 µM (active)
[20]
  GI50: 0.11 µM (active)

## Nc1nc(Cl)cc(NCC2(CO)CC(O)C2)n1 (stereo not given)
[1]
  GI50: > 100 µM (inactive)
[2]
  GI50: > 100 µM (inactive)
[3]
  GI50: > 100 µM (inactive)
[4]
  GI50: > 100 µM (inactive)
[5]
  GI50: > 100 µM (inactive)
[6]
  GI50: > 100 µM (inactive)
[7]
  GI50: > 100 µM (inactive)
[8]
  GI50: > 100 µM (inactive)
[9]
  GI50: > 100 µM (inactive)
[10]
  GI50: > 100 µM (inactive)
[11]
  GI50: > 100 µM (inactive)
[12]
  GI50: > 100 µM (inactive)
[13]
  GI50: > 100 µM (inactive)
[14]
  GI50: > 100 µM (inactive)
[15]
  GI50: > 100 µM (inactive)
[16]
  GI50: > 100 µM (inactive)
[17]
  GI50: > 100 µM (inactive)
[18]
  GI50: > 100 µM (inactive)
[19]
  GI50: > 100 µM (inactive)
[20]
  GI50: > 100 µM (inactive)

## CC(=O)OCC(=O)O[C@@H]1[C@H]2[C@@H](OC(=O)c3ccccc3)[C@@H](C)C[C@]2(O)[C@H](OC(C)=O)[C@@]2(C)C(OC(C)=O)[C@]1(OC(C)=O)C[C@H]1C(=O)C(C)(C)C[C@@H]12 (stereo not given in full)
[1]
  GI50: > 50 µM (inactive)
[2]
  GI50: 37.6 µM (inactive)
[3]
  GI50: > 19.6 µM (inactive)
[4]
  GI50: > 50 µM (inactive)
[5]
  GI50: > 31.7 µM (inactive)
[6]
  GI50: 9.02 µM (inactive)
[7]
  GI50: > 50 µM (inactive)
[8]
  GI50: 26.2 µM (inactive)
[9]
  GI50: > 50 µM (inactive)
[10]
  GI50: > 50 µM (inactive)
[11]
  GI50: 12.8 µM (inactive)
[12]
  GI50: > 26.9 µM (inactive)
[13]
  GI50: > 50 µM (inactive)
[14]
  GI50: > 50 µM (inactive)
[15]
  GI50: > 50 µM (inactive)
[16]
  GI50: > 45.3 µM (inactive)
[17]
  GI50: > 50 µM (inactive)
[18]
  GI50: > 50 µM (inactive)
[19]
  GI50: 35.9 µM (inactive)
[20]
  GI50: 4.12 µM (inactive)

## O=C1NCC2(CCNCC2)N1c1ccccc1
[1]
  GI50: > 100 µM (inactive)
[2]
  GI50: > 100 µM (inactive)
[3]
  GI50: > 100 µM (inactive)
[4]
  GI50: > 100 µM (inactive)
[5]
  GI50: > 100 µM (inactive)
[6]
  GI50: > 100 µM (inactive)
[7]
  GI50: > 100 µM (inactive)
[8]
  GI50: > 100 µM (inactive)
[9]
  GI50: > 100 µM (inactive)
[10]
  GI50: > 100 µM (inactive)
[11]
  GI50: > 100 µM (inactive)
[12]
  GI50: > 100 µM (inactive)
[13]
  GI50: > 100 µM (inactive)
[14]
  GI50: > 100 µM (inactive)
[15]
  GI50: > 100 µM (inactive)
[16]
  GI50: > 100 µM (inactive)
[17]
  GI50: > 100 µM (inactive)
[18]
  GI50: > 100 µM (inactive)
[19]
  GI50: > 100 µM (inactive)
[20]
  GI50: > 100 µM (inactive)

## COc1ccc2nc(C)cc(NCCCCCCCCCNc3cc(C)nc4ccc(OC)cc34)c2c1
[1]
  GI50: 2.99 µM (inactive)
[2]
  GI50: 6.67 µM (inactive)
[3]
  GI50: 1.29 µM (inactive)
[4]
  GI50: 1.73 µM (inactive)
[5]
  GI50: 1.24 µM (inactive)
[6]
  GI50: 0.264 µM (active)
[7]
  GI50: 1.27 µM (inactive)
[8]
  GI50: 1.58 µM (inactive)
[9]
  GI50: 0.527 µM (active)
[10]
  GI50: 6.07 µM (inactive)
[11]
  GI50: 2.28 µM (inactive)
[12]
  GI50: 1.64 µM (inactive)
[13]
  GI50: 3.79 µM (inactive)
[14]
  GI50: 1.03 µM (active)
[15]
  GI50: 1.93 µM (inactive)
[16]
  GI50: 8.87 µM (inactive)
[17]
  GI50: 1.21 µM (inactive)
[18]
  GI50: 4.66 µM (inactive)
[19]
  GI50: 9.27 µM (inactive)
[20]
  GI50: 0.396 µM (active)
